{"source": "patent US6518012B1", "about": "“Method for regulating the expression of MHC antigens and CD40 by inhibitors of histone deacetylation” (Health Research, Inc., priority 1999, dated 2003)", "key": {"MHC class I": {"tested_on": "MHC class I", "assay": "Cell surface MHC class I by flow cytometry on SK-N-MC", "type": "cell-based, human", "conditions": "50 nM TSA 48 hours"}, "J558 cells": {"tested_on": "J558 cells", "assay": "Other cell surface markers by flow cytometry on J558 cells", "type": "cell-based, mouse", "conditions": "TSA treatment", "protocol": "(§1) To determine the effect of TSA on cell surface protein expression, the J558 cell line was subjected to flow cytometric analyses as follows. Flow cytometric analyses were conducted by standard methods using cells fixed with 1.0% paraformaldehyde and analyzed on the FACScan (Becton Dickinson). Cell cycle analyses were carried out by flow cytometry with PI staining of genomic DNA. Cells were fixed and permeablized in methanol, treated with RNaseA and analyzed for DNA content by determination of FL3-area on the FACScan. The FL3-area data were analyzed with the ModFit software for determination of the percent cells in each phase of the cell cycle. In some cases, fluorescein isothiocyanate (FITC)-conjugated antibody staining was conducted prior to PI treatment and surface staining was analyzed as a function of cell cycle phase. Apoptosis was analyzed by staining with annexin-V directly conjugated with either FITC or RPE and by sub-G0 analysis of DNA staining. […] Isotype controls were analyzed and, in each case, fell on or below the levels shown for control cells. […] Since all cells were positive for MHC class I expression, the number under the histogram represents -fold change of expression calculated from the mean channel-shift after treatment relative to untreated cells. […]"}, "CD40": {"tested_on": "CD40", "assay": "Cell surface CD40 by flow cytometry on SK-N-MC", "type": "cell-based, human", "conditions": "50 nM TSA 48 hours"}, "[1]": {"tested_on": "MC, Colon 26 and J558 cells", "assay": "Apoptosis by flow cytometry (sub-G0 PI staining, annexin-V)", "type": "cell-based", "conditions": "low concentrations of TSA employed in FIG. 8", "protocol": "as §1"}, "cell lines employed": {"tested_on": "cell lines employed", "assay": "Toxicity of deacetylase inhibitors (lift-off, trypan-blue dye exclusion, laddering, PI/annexin-V flow cytometry)", "type": "cell-based", "conditions": "TSA from 5 nM to 250 nM for 6 to 72 hr", "protocol": "Two representative DAIs, TSA and NaBu were used for this illustration. […] In some experiments, 100 U/ml γ-IFN was added with and without the deacetylase inhibitor."}, "[2]": {"tested_on": "DP and DQ isotypes of MHC class II mRNA", "assay": "mRNA for DP and DQ isotypes of MHC class II in SK-N-MC", "type": "cell-based, human", "conditions": "data not shown"}, "[3]": {"tested_on": "MC, Colon 26 and J558 cells", "assay": "Cell cycle analysis by DNA staining and flow cytometry", "type": "cell-based", "conditions": "TSA concentrations used in FIG. 8 (50 nM 48 hours MC and Colon 26; 25 nM 24 hours J558); data not shown", "protocol": "as §1"}, "[4]": {"tested_on": "IRF-1, GBP and MHC class I mRNA", "assay": "mRNA of IRF-1, GBP and MHC class I in J558", "type": "cell-based, mouse", "conditions": "IFNγ, data not shown", "protocol": "To determine if the effect of DAIs on MHC class II was manifested in other tumors and in different species, the effect of TSA was tested on four commonly used mouse tumor models: the SaI fibrosarcoma, the Colon 26 adenocarcinoma, the J558 plasmacytoma and the P815 mastocytoma. TSA induced class II in all four mouse tumors examined, while the effects of IFNγ were variable (FIG. 4). Data presented for each cell line represents optimal incubation time and concentration of TSA and is compared with 100 U/ml of IFNγ at the same time point. Numbers over bars represents fold changes. […] Colon 26 and J558 that differed strikingly in their reactivity to IFNγ were selected for further evaluation. RT-PCR and real time PCR was used to examine induction of CIITA and IAα by TSA and IFNγ. A20, a constitutively positive B cell line was used as a positive control. The results are shown in FIGS. 5A-D. The numbers over bars represent fold changes. […] Since the classical IFNγ inducible genes IRF-1 and GBP as well as MHC class I mRNA were not induced by IFNγ in J558 (data not shown), this cell line may have a signaling defect in the IFNγ pathway. Unexpectedly however, and unlike either the MC or Colon 26 cells, TSA induced both CIITA (102-fold) and Iα (537-fold) in J558 as shown in FIGS. 5B and 5D."}, "[5]": {"tested_on": "interferon regulatory factor (IRF-1) and guanylate binding protein (GBP) mRNA", "assay": "mRNA of IFNγ inducible genes IRF-1 and GBP in SK-N-MC", "type": "cell-based, human", "conditions": "IFNγ treatment, data not shown"}}, "data": [{"compound": "CC(/C=C/C(=O)NO)=C\\[C@@H](C)C(=O)c1ccc(N(C)C)cc1", "note": "[TSA, Trichostatin A]", "values": [{"measurement": "MHC class I expression on cell surface", "setting": "MHC class I", "result": "enhanced"}, {"measurement": "expressed markers (CD44, CD54, CD80, CD86, CD119)", "setting": "J558 cells", "result": "not altered"}, {"measurement": "levels of non-expressed antigens (CD25, B7 integrin, CD40L, H2K^k, IA^k)", "setting": "J558 cells", "result": "not elicited"}, {"measurement": "expression of CD40 on cell surface", "setting": "CD40", "result": "induced expression"}, {"measurement": "apoptosis", "setting": "[1]", "result": "could not be detected"}, {"measurement": "toxicity", "setting": "cell lines employed", "result": "non toxic"}, {"measurement": "mRNA for the DP and DQ isotypes of MHC class II", "setting": "[2]", "result": "induced"}, {"measurement": "effect on the cell cycle", "setting": "[3]", "result": "did not significantly alter"}]}, {"compound": "IFNγ: gamma-interferon, cytokine used as comparator at 100 U/ml", "values": [{"measurement": "IRF-1, GBP and MHC class I mRNA induction", "setting": "[4]", "result": "not induced"}, {"measurement": "mRNA for IRF-1 and GBP", "setting": "[5]", "result": "enhanced"}]}]}
